# Source: patent US20100068197A1, “PHARMACEUTICAL COMPOUNDS AS INHIBITORS OF CELL PROLIFERATION AND THE USE THEREOF” (Myriad Pharmaceuticals, Inc., priority 2008, published 2010)
# Tests used:
# [1] = system: P388 murine leukemia cell line; experiment: P388 cytotoxicity, cellular viability by ATP-Lite; type: cell-based; details: compound concentration required to inhibit growth by 50%, intracellular ATP
# Description: A P388 murine leukemia cell line was obtained from NCI, Frederick, Md. P388 cells were cultured in RPMI-1640 supplemented with 10% fetal bovine serum, 2 mM Glutamax, 1 mM sodium pyruvate, 0.1 mM non-essential amino acids and 10 mM HEPES. Cells were grown at 37° C. in a humidified 5% CO2 atmosphere. Exponentially growing P388 cells were plated at 5,000 cells/well in a 96-well flat-bottomed microtiter plate (Corning, Costar #3595). […] Cellular viability was determined 72 hours later by measuring intracellular ATP with ATP-Lite assay system. The effect of compounds on cell viability was calculated by comparing the ATP levels of cells exposed to test compound with those of cells exposed to DMSO. A semi-log plot of relative ATP levels versus compound concentration was used to calculate the compound concentration required to inhibit growth by 50% (IC50). Data was analyzed by Prism software (GraphPad; San Diego, Calif.) by fitting it to a sigmoidal dose response curve.
# [2] = system: P388/ADR cell lines (overexpress the multidrug resistance pump MDR-1); experiment: Multidrug resistant cell assay, cell viability by ATP-lite; type: cell-based, murine
# Excerpt: Cytotoxicity of compounds in multidrug resistant cells can be determined by administering compounds to cell lines that overexpress the multidrug resistance pump MDR-1 and determining the viability of the cell lines. P388/ADR cell lines are known to overexpress the multidrug resistance pump MDR-1 (also known as P-glycoprotein-1; Pgp-1).
# P388/ADR cell lines are obtained from American Type Culture Collection (Manassas, Va.) and maintained in RPMI-1640 media supplemented with 10% FCS, 10 units/mL penicillin and streptomycin, 2 mM Glutamax and 1 mM sodium pyruvate (Invitrogen Corporation, Carlsbad, Calif.). For compound testing, cells are plated in 96 well dishes at a concentration of 1.5×10^4 cells/well. Cells are allowed to adhere to the plate overnight and then incubated with compounds at final concentrations ranging from 0.13 nM to 10 μM for 72 hours. Cell viability is then assessed using the ATP-lite reagent (Perkin Elmer, Foster City, Calif.). Plates are read on a Wallac Topcount luminescence reader (Perkin Elmer, Foster City, Calif.) and the results graphed in Prism software (Graphpad Software, Inc., San Diego, Calif.). Non-linear regression with variable slope analysis is performed to obtain IC50 concentration values.
# [3] = Mus musculus, 72 h, multidrug resistant cells overexpressing MDR-1
# [4] = multidrug resistant cells overexpressing MDR-1, 72 hours
SMILES,"IC50 [2, 3] [µM]","IC50 [2, 4] [µM]","IC50 ([1]; Mus musculus, P388, 72 h) [µM]",IC50 ([1]; 72 hours) [µM]
"COc1ccc(N(C)c2nc(NCCOCCOCCN)nc3ccccc23)cc1 [Example 3, N^2-{2-[2-(2-Amino-ethoxy)-ethoxy]-ethyl}-N^4-(4-methoxy-phenyl)-N^4-methyl-quinazoline-2,4-diamine]",2,–,1.4,–
"COc1ccc(N(C)c2nc(OCCN3CCN(CCO)CC3)nc3ccccc23)cc1 [Example 5, 2-[4-(2-{4-[(4-Methoxy-phenyl)-methyl-amino]-quinazolin-2-yloxy}-ethyl)-piperazin-1-yl]-ethanol]",–,–,3.6,–
"CCOC(=O)C1C=CC(C)n2c(=O)n(CCNc3nc(N(C)c4ccc(OC)cc4)c4ccccc4n3)c(=O)n21 (centres unmarked) [Example 6, 2-(2-{4-[(4-Methoxy-phenyl)-methyl-amino]-quinazolin-2-ylamino}-ethyl)-8-methyl-1,3-dioxo-2,3,5,8-tetrahydro-1H-[1,2,4]triazolo[1,2-a]pyridazine-5-carboxylic acid ethyl ester]",3.5,–,3,–
"CCOCCOCCOCCOc1nc(N(C)c2ccc(OC)cc2)c2ccccc2n1 [Example 7, (2-{2-[2-(2-Ethoxy-ethoxy)-ethoxy]-ethoxy}-quinazolin-4-yl)-(4-methoxy-phenyl)-methyl-amine]",0.52,–,1.4,–
"COc1ccc(N(C)c2nc(N3CCNCC3)nc3ccccc23)cc1 [Example 9, (4-Methoxy-phenyl)-methyl-(2-piperazin-1-yl-quinazolin-4-yl)-amine]",3.2,–,2.6,–
"COc1ccc(N(C)c2nc(NCCOP(=O)(O)OC(C)(C)C)nc3ccccc23)cc1 [Example 12, Phosphoric acid tent-butyl ester 2-{4-[(4-methoxy-phenyl)-methyl-amino]-quinazolin-2-ylamino}-ethyl ester]",7.8,–,3.1,–
"COc1ccc(N(C)c2nc(NCCNC(=O)OC(C)(C)C)nc3ccc(OC)cc23)cc1 [Example 16, (2-{6-Methoxy-4-[(4-methoxy-phenyl)-methyl-amino]-quinazolin-2-ylamino}-ethyl)-carbamic acid tent-butyl ester]",3.4,2,4,2.4
"COc1ccc(N(C)c2nc(NCCNC(=O)OCc3ccccc3)nc3ccc(OC)cc23)cc1 [Example 17, (2-{6-Methoxy-4-[(4-methoxy-phenyl)-methyl-amino]-quinazolin-2-ylamino}-ethyl)-carbamic acid benzyl ester]",8.5,–,4.5,3
"COc1ccc(N(C)c2nc(NCCNC(C)=O)nc3ccc(C)cc23)cc1 [Example 18, N-(2-{4-[(4-Methoxy-phenyl)-methyl-amino]-6-methyl-quinazolin-2-ylamino}-ethyl)-acetamide]",2.5,1.4,–,–
"COc1ccc(N(C)c2nc(NCCNC(C)=O)nc3ccccc23)cc1OC [Example 20, N-(2-{4-[(3,4-Dimethoxy-phenyl)-methyl-amino]-quinazolin-2-ylamino}-ethyl)-acetamide]",9.4,–,1.7,1.1
"COc1ccc(N(C)c2nc(NCCNC(N)=O)nc3ccc(OC)cc23)cc1 [Example 22, (2-{6-Methoxy-4-[(4-methoxy-phenyl)-methyl-amino]-quinazolin-2-ylamino}-ethyl)-urea]",–,–,9.3,–
"COc1ccc(N(C)c2nc(N[C@@H](CO)c3ccccc3)nc3ccccc23)cc1 [Example 23, (R)-2-{4-[(4-Methoxy-phenyl)-methyl-amino]-quinazolin-2-ylamino}-2-phenyl-ethanol]",3.3,–,4.6,–
"COC(=O)NCCNc1nc(N(C)c2ccc(OC)cc2)c2cc(OC)ccc2n1 [Example 26, (2-{6-Methoxy-4-[(4-methoxy-phenyl)-methyl-amino]-quinazolin-2-ylamino}-ethyl)-carbamic acid methyl ester]",7.4,–,7.2,–
"COc1ccc(N(C)c2nc(N(CCNC(C)=O)C(C)=O)nc3ccccc23)cc1 [Example 39, N-[2-(Acetyl-{4-[(4-methoxy-phenyl)-methyl-amino]-quinazolin-2-yl}-amino)-ethyl]-acetamide]",–,–,3.8,–

# Further lines, with some results ahead:
"IC50 [2, 3] [µM]","IC50 [2, 4] [µM]",SMILES,"IC50 ([1]; Mus musculus, P388, 72 h) [µM]",IC50 ([1]; 72 hours) [µM]
0.58,–,"COCCOCCOc1nc(N(C)c2ccc(OC)cc2)c2ccccc2n1 [Example 1, {2-[2-(2-Methoxy-ethoxy)-ethoxy]-quinazolin-4-yl}-(4-methoxy-phenyl)-methyl-amine]",0.49,–
0.074,–,"COCCOCCOCCOc1nc(N(C)c2ccc(OC)cc2)c2ccccc2n1 [Example 2, (2-{2-[2-(2-Methoxy-ethoxy)-ethoxy]-ethoxy}-quinazolin-4-yl)-(4-methoxy-phenyl)-methyl-amine]",0.065,–
0.53,–,"COc1ccc(N(C)c2nc(NCCNCCNCCN)nc3ccccc23)cc1 [Example 4, N^2-{2-[2-(2-Amino-ethylamino)-ethylamino]-ethyl}-N^4-(4-methoxy-phenyl)-N^4-methyl-quinazoline-2,4-diamine]",0.55,–
0.03,–,"COCCOCCOC(=O)OCCNc1nc(N(C)c2ccc(OC)cc2)c2ccccc2n1 [Example 8, Carbonic acid 2-(2-methoxy-ethoxy)-ethyl ester 2-{4-[(4-methoxy-phenyl)-methyl-amino]-quinazolin-2-ylamino}-ethyl ester]",0.025,–
0.38,–,"COc1ccc(N(C)c2nc(NCCOP(=O)(OC(C)(C)C)OC(C)(C)C)nc3ccccc23)cc1 [Example 10, Phosphoric acid di-tent-butyl ester 2-{4-[(4-methoxy-phenyl)-methyl-amino]-quinazolin-2-ylamino}-ethyl ester]",–,–
0.018,–,"COc1ccc(N(C)c2nc(NCCOC(=O)CN)nc3ccccc23)cc1 [Example 13, Amino-acetic acid 2-{4-[(4-methoxy-phenyl)-methyl-amino]-quinazolin-2-ylamino}-ethyl ester]",0.015,–
0.34,0.35,"COc1ccc(N(C)c2nc(NCCNC(=O)OC(C)(C)C)nc3ccccc23)cc1OC [Example 14, (2-{4-[(3,4-Dimethoxy-phenyl)-methyl-amino]-quinazolin-2-ylamino}-ethyl)-carbamic acid tert-butyl ester]",0.3,0.34
0.033,0.022,"COc1ccc(N(C)c2nc(NCCOC(=O)[C@H](N)CCCCN)nc3ccccc23)cc1 [Example 15, (R)-2,6-Diamino-hexanoic acid 2-{4-[(4-methoxy-phenyl)-methyl-amino]-quinazolin-2-ylamino}-ethyl ester]",0.011,0.015
0.19,0.15,"COC(=O)NCCNc1nc(N(C)c2ccc(OC)c(OC)c2)c2ccccc2n1 [Example 21, (2-{4-[(3,4-Dimethoxy-phenyl)-methyl-amino]-quinazolin-2-ylamino}-ethyl)-carbamic acid methyl ester]",0.12,0.064
1.7,–,"COc1ccc(N(C)c2nc(N[C@@H](C)[C@H](O)c3ccccc3)nc3ccccc23)cc1 [Example 24, (1R,2S)-2-{4-[(4-Methoxy-phenyl)-methyl-amino]-quinazolin-2-ylamino}-1-phenyl-propan-1-ol]",1.6,–
1.8,–,"COc1ccc(N(C)c2nc(N[C@@H](CO)Cc3ccccc3)nc3ccccc23)cc1 [Example 25, (R)-2-{4-[(4-Methoxy-phenyl)-methyl-amino]-quinazolin-2-ylamino}-3-phenyl-propan-1-ol]",1.8,–
0.22,–,"COc1ccc(N(C)c2nc(NCCOC(=O)[C@@H](N)CCSC)nc3ccccc23)cc1 [Example 27, (S)-2-Amino-4-methylsulfanyl-butyric acid 2-{4-[(4-methoxy-phenyl)-methyl-amino]-quinazolin-2-ylamino}-ethyl ester]",0.22,–
0.17,–,"COc1ccc(N(C)c2nc(N[C@@H](C)C(=O)OC(C)(C)C)nc3ccccc23)cc1 [Example 28, (S)-2-{4-[(4-Methoxy-phenyl)-methyl-amino]-quinazolin-2-ylamino}-propionic acid tert-butyl ester]",0.15,–
0.04,–,"COc1ccc(N(C)c2nc(NCCOC(=O)[C@H](Cc3c[nH]c4ccccc34)NC(=O)OCc3ccccc3)nc3ccccc23)cc1 [Example 29, (S)-2-Benzyloxycarbonylamino-3-(1H-indol-3-yl)-propionic acid 2-{4-[(4-methoxy-phenyl)-methyl-amino]-quinazolin-2-ylamino}-ethyl ester]",0.032,–
